Results from ChEMBL document CHEMBL1909046, “DrugMatrix in vitro pharmacology data”.

Legend:
[1] = target: D(3) dopamine receptor (Homo sapiens, UniProt P35462); test: DRUGMATRIX: Dopamine D3 radioligand binding (ligand: [3H] Spiperone); format: cell membranes, CHO, Membrane
[2] = DRUGMATRIX: Glutamate, Kainate radioligand binding (ligand: [3H] Kainic acid); format: cell membranes, Rattus norvegicus, Wistar, Brain, Membrane; details: Not Active = under 50% inhibition at 10 µM
[3] = target: Delta-type opioid receptor (Homo sapiens, UniProt P41143); format: cell membranes, HEK293, Membrane; details: hek293; note: in other assays of this panel Not Active means under 50% inhibition at 10 µM
[4] = target: Cannabinoid receptor 1 (Homo sapiens, UniProt P21554); format: cell membranes, Membrane; details: chem-1; note: in other assays of this panel Not Active means under 50% inhibition at 10 µM
[5] = DRUGMATRIX: Calcium Channel Type L, Benzothiazepine radioligand binding (ligand: [3H] Diltiazem); format: cell membranes, Rattus norvegicus, Wistar, Brain, Membrane; details: Not Active = under 50% inhibition at 10 µM
[6] = target: Acetylcholinesterase (Homo sapiens, UniProt P22303); test: DRUGMATRIX: Acetylcholinesterase enzyme inhibition (substrate: acetylthiocholine); format: cell-based, HEK293; details: hek293; Not Active = under 50% inhibition at 10 µM
[7] = target: T1, Neutrophil elastase (Homo sapiens, UniProt P08246); format: tissue-based;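 note: inhibition of neutrophil elastase enzyme activity, measured with a p-nitroanilide-linked peptide substrate; in other assays of this panel Not Active means under 50% inhibition at 10 µM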
T1 sequence (P08246 whole entry): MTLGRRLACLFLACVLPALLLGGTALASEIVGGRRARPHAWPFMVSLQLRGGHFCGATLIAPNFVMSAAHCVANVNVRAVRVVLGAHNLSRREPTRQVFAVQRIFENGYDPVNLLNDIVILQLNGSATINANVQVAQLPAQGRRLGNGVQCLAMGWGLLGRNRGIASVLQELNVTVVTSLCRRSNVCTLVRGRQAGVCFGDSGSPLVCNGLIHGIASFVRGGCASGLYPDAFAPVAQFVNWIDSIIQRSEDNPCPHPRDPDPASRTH

[8] = target: D(1A) dopamine receptor (Homo sapiens, UniProt P21728); test: DRUGMATRIX: Dopamine D1 radioligand binding (ligand: [3H] SCH-23390); format: cell membranes, CHO, Membrane; details: cho; Not Active = under 50% inhibition at 10 µM
[9] = target: T2, 5-hydroxytryptamine receptor 1A (Rattus norvegicus, UniProt P19327); format: cell membranes, CHO-K1, Membrane; note: in other assays of this panel Not Active means under 50% inhibition at 10 µM
T2 sequence (P19327 whole entry): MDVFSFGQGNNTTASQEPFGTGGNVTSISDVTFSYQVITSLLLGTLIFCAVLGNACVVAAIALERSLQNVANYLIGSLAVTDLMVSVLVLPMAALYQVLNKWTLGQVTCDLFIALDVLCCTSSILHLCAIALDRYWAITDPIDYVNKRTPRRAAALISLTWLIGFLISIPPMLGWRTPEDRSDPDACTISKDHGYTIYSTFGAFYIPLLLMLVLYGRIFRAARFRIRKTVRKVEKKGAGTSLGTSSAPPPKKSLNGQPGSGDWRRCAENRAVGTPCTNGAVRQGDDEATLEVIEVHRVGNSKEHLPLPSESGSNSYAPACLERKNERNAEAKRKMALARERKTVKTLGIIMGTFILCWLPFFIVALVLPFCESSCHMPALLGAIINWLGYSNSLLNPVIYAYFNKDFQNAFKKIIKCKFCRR

[10] = target: T3, Muscarinic acetylcholine receptor M4 (Homo sapiens, UniProt P08173); format: cell membranes, CHO-K1, Membrane; details: cho-k1; note: in other assays of this panel Not Active means under 50% inhibition at 10 µM
T3 sequence (P08173 whole entry): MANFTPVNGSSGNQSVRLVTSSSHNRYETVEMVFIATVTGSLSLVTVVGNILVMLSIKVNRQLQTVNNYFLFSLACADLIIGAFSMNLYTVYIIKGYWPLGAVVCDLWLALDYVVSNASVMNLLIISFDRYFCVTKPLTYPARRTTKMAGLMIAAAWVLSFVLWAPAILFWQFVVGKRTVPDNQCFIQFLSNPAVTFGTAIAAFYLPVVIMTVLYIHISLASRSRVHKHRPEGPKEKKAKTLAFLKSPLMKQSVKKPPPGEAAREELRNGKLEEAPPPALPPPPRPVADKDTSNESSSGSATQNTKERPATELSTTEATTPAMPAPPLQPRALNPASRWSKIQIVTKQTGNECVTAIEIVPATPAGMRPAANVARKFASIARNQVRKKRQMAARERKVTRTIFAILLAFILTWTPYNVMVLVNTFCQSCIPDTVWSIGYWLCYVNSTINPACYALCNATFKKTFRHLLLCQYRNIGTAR

[11] = DRUGMATRIX: Phosphodiesterase PDE3 enzyme inhibition (substrate: [3H]cAMP + cAMP); format: tissue-based, Homo sapiens; details: platelet, Not Active = under 50% inhibition at 10 µM
[12] = target: T4, Neuropeptide Y receptor type 1 (Homo sapiens, UniProt P25929); format: cell membranes, Membrane; details: sk-n-mc; note: in other assays of this panel Not Active means under 50% inhibition at 10 µM
T4 sequence (P25929 whole entry): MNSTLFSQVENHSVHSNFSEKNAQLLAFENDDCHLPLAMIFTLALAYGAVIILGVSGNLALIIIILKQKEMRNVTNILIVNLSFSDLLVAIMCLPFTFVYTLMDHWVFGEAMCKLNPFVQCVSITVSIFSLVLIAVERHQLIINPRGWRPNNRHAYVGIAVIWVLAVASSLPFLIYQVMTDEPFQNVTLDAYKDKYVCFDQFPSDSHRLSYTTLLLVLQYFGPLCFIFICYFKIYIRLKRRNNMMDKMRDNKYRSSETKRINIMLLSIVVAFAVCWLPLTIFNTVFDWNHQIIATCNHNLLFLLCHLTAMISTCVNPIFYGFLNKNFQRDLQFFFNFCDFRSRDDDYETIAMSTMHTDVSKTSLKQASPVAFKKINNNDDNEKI

[13] = target: T5, Endothelin-1 receptor (Homo sapiens, UniProt P25101); format: cell membranes, Membrane; details: cho-k1; note: in other assays of this panel Not Active means under 50% inhibition at 10 µM
T5 sequence (P25101 whole entry): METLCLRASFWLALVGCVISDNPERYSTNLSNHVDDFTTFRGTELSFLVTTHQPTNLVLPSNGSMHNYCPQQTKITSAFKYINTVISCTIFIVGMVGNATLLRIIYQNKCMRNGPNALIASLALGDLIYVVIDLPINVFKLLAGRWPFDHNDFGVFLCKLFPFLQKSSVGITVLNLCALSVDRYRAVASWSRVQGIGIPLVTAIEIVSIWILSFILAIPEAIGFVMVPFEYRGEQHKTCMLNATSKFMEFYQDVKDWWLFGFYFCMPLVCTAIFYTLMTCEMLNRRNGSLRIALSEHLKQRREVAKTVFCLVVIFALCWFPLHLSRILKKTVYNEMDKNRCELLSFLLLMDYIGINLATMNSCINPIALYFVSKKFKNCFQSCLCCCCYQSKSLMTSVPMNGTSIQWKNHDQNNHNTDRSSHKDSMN

Chain of Delta-type opioid receptor (P41143 whole entry): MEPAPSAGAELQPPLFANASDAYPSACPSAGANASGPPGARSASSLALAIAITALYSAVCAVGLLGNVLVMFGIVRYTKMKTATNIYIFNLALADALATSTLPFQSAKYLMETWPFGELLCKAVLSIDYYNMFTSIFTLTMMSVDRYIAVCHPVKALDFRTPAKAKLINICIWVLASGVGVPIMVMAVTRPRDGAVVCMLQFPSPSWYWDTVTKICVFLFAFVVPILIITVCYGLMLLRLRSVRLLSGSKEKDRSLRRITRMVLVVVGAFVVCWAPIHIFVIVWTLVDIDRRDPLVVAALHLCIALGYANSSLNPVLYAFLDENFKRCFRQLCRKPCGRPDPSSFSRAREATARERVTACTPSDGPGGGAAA
Chain of Acetylcholinesterase (P22303 whole entry): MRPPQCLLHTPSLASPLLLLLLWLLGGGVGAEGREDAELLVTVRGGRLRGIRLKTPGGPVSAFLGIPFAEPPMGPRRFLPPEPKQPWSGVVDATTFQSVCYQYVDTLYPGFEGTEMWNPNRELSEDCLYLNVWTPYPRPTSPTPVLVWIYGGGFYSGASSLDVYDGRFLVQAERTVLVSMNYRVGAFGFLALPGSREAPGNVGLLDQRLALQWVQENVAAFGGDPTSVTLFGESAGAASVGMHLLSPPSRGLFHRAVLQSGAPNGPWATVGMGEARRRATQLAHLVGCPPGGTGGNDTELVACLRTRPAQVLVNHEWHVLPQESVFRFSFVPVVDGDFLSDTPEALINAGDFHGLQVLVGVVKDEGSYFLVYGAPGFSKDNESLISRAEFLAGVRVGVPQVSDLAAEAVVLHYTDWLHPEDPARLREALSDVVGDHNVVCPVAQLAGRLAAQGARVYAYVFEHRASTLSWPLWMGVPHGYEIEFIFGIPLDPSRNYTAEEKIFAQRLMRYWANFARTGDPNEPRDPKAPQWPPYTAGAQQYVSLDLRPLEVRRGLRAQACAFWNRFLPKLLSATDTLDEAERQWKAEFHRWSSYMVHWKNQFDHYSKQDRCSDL
Chain of Cannabinoid receptor 1 (P21554 whole entry): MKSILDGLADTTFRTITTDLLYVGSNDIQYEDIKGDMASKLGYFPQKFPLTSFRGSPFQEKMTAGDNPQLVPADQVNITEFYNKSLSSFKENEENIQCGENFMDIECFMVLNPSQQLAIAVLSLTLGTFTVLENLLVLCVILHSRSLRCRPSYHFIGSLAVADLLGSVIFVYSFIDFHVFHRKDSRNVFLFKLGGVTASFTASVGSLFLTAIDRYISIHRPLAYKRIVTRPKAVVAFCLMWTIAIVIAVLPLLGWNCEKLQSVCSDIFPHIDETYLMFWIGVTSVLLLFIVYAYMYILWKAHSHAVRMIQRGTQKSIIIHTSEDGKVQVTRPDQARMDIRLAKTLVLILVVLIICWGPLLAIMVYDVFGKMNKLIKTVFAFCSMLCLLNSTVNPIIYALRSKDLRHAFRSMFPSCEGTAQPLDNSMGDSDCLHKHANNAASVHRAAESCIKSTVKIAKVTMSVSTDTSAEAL
Chain of D(3) dopamine receptor (P35462 whole entry): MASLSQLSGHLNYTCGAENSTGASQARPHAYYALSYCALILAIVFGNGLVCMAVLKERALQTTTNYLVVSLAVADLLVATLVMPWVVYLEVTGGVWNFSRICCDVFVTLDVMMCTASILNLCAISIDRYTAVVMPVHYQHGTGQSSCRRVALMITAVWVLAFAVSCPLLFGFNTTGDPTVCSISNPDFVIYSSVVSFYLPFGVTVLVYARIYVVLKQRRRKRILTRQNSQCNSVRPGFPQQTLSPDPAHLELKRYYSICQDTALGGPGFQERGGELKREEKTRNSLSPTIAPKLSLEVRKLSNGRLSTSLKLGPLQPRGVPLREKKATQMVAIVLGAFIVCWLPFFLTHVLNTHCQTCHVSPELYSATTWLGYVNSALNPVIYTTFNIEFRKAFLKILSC
Chain of D(1A) dopamine receptor (P21728 whole entry): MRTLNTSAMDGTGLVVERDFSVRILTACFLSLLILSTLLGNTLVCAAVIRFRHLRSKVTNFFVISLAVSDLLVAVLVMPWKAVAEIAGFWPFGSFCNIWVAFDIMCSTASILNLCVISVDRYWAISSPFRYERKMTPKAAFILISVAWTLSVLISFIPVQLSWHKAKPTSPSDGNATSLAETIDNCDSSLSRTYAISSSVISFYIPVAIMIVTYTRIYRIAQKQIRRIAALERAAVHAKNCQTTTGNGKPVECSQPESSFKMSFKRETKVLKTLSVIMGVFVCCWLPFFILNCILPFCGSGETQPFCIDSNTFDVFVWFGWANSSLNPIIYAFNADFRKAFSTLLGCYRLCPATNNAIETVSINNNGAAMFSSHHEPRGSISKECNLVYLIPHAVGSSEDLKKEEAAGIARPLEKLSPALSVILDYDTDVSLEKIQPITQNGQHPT

Row | Compound | IC50 ([1]; cho) | IC50 [2] | Ki [2] | IC50 [3] | IC50 [4] | IC50 [5] | Ki [5] | IC50 [6] | IC50 [7] | IC50 [8] | IC50 ([9]; cho-k1) | IC50 [10] | IC50 [11] | Ki [11] | IC50 [12] | IC50 [13] | also measured
1 | OCc1ccccc1 [BENZYL ALCOHOL] | Not Active | Not Active | Not Active | Not Active | Not Active | Not Active | Not Active | Not Active | Not Active | Not Active | Not Active | Not Active | Not Active | Not Active | Not Active | Not Active | 
2 | CC(C)(Oc1ccc(CCNC(=O)c2ccc(Cl)cc2)cc1)C(=O)O [BEZAFIBRATE] | Not Active | Not Active | Not Active | Not Active | Not Active | Not Active | Not Active | Not Active | Not Active | Not Active | Not Active | Not Active | Not Active | Not Active | Not Active | Not Active | 
3 | CCCC[C@@H](CC)COC(=O)c1ccccc1C(=O)OC[C@@H](CC)CCCC [BIS(2-ETHYLHEXYL)PHTHALATE] | Not Active | Not Active | Not Active | Not Active | Not Active | Not Active | Not Active | Not Active | Not Active | Not Active | Not Active | Not Active | Not Active | Not Active | Not Active | Not Active | 
4 | Oc1c(Cl)cc(Cl)cc1Sc1cc(Cl)cc(Cl)c1O [BITHIONOL] |  | Not Active | Not Active | Not Active | Not Active | Not Active | Not Active | Not Active | Not Active | Not Active |  | Not Active |  |  | Not Active | Not Active | IC50 ([1]; read-out: IC50): 4.22 µM; Ki ([1]; read-out: Ki): 1.43 µM; IC50 ([9]; read-out: IC50): 5.51 µM; Ki ([9]; read-out: Ki): 3.15 µM; IC50 ([11]; read-out: IC50): 2.72 µM
5 | Brc1ccccc1 [BROMOBENZENE] | Not Active | Not Active | Not Active | Not Active | Not Active | Not Active | Not Active | Not Active | Not Active | Not Active | Not Active | Not Active | Not Active | Not Active | Not Active | Not Active | 
6 | CCCCOC(=O)c1ccc(N)cc1 [BUTAMBEN] | Not Active | Not Active | Not Active | Not Active | Not Active | Not Active | Not Active | Not Active | Not Active | Not Active | Not Active | Not Active | Not Active | Not Active | Not Active | Not Active | 
7 | CC[C@@]1(O)C(=O)OCc2c1cc1n(c2=O)Cc2cc3ccccc3nc2-1 [CAMPTOTHECIN] | Not Active | Not Active | Not Active | Not Active | Not Active | Not Active | Not Active | Not Active | Not Active | Not Active | Not Active | Not Active | Not Active | Not Active | Not Active | Not Active | 
8 | COCc1c(C(C)C)nc(C(C)C)c(/C=C/[C@@H](O)C[C@@H](O)CC(=O)O)c1-c1ccc(F)cc1 [CERIVASTATIN] | Not Active | Not Active | Not Active | Not Active | Not Active | Not Active | Not Active | Not Active | Not Active | Not Active | Not Active | Not Active | Not Active | Not Active | Not Active | Not Active | 
9 | CC(=O)O[C@]1(C(C)=O)CC[C@H]2[C@@H]3C=C(Cl)C4=CC(=O)CC[C@]4(C)[C@H]3CC[C@@]21C [CHLORMADINONE ACETATE] | Not Active | Not Active | Not Active | Not Active | Not Active | Not Active | Not Active | Not Active | Not Active | Not Active | Not Active | Not Active | Not Active | Not Active | Not Active | Not Active | 
